Consider two molecules from paper doi:10.1101/209783v1 (biorxiv, 2017).

The term IC50 denotes the concentration needed to halve the response being measured.

The assay has as its target Kir6.2/SUR2A KATP channel (mKir6.2 + rSUR2A) (Rattus norvegicus, UniProt Q61743+Q63563). Kind of assay: inside-out excised patch clamp, Hill fit. Type of assay: biochemical. In general terms: Patch clamp records ionic current or voltage across a cell membrane.

Structures are written as SMILES.

Kir6.2/SUR2A KATP channel (mKir6.2 + rSUR2A), sequence (Q63563 whole entry): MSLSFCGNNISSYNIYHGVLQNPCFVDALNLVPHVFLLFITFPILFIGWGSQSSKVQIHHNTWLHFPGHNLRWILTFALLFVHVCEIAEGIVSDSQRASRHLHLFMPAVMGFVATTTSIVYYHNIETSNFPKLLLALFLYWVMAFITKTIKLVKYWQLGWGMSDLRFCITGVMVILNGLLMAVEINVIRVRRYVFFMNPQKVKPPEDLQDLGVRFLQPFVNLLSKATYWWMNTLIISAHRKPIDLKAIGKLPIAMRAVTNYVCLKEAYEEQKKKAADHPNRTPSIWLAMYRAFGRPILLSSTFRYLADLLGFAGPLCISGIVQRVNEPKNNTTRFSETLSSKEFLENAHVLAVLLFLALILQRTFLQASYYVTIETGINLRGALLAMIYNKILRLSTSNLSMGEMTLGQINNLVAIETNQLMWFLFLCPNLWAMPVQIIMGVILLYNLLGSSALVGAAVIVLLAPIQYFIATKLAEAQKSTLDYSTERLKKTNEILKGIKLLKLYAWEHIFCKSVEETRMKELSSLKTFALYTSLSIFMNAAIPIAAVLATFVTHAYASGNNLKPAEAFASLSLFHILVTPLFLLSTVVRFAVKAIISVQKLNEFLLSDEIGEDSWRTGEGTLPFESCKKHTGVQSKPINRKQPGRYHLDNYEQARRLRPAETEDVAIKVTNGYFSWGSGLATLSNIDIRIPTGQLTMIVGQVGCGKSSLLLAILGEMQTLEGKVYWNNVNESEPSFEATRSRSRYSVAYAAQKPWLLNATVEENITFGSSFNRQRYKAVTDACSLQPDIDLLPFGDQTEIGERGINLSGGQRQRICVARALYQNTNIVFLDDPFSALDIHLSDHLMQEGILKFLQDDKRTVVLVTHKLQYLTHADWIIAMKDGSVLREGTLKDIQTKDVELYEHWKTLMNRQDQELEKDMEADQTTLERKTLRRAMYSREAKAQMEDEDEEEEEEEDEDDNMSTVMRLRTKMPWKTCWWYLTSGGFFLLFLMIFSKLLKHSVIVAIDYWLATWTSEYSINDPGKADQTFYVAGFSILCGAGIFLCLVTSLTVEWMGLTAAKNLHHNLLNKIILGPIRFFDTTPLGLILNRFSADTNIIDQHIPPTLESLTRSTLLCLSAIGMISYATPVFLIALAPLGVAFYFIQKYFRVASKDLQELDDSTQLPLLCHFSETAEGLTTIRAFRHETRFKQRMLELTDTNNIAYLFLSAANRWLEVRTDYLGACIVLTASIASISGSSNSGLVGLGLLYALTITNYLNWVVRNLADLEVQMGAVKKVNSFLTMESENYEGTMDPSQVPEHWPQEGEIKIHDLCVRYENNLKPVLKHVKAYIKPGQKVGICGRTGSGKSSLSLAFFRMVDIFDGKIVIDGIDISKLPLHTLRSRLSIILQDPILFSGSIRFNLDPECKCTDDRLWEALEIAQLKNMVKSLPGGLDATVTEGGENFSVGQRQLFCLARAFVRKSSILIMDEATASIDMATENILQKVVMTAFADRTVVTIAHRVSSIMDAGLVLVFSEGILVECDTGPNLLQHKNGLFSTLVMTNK
Kir6.2/SUR2A KATP channel (mKir6.2 + rSUR2A), sequence (Q61743 whole entry): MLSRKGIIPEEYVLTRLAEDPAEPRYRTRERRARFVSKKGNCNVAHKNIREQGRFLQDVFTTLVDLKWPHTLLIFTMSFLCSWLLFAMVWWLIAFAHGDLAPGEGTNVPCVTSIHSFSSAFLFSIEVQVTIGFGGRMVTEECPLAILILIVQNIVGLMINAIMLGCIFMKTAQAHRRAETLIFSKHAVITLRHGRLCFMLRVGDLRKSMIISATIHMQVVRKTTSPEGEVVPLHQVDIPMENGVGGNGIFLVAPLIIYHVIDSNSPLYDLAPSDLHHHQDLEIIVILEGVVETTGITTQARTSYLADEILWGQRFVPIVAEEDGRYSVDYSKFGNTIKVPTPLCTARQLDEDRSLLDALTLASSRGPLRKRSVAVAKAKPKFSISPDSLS

Regarding `Nc1ncnc2c1ncn2[C@@H]1O[C@H](COP(=O)(O)OP(=O)(O)OP(=O)(O)O)[C@@H](O)[C@H]1O` [ATP], the half-maximal inhibitory concentration (IC50) was 14.4 ± 2.3 µM.

As to `COc1ccc(Cl)cc1C(=O)NCCc1ccc(S(=O)(=O)NC(=O)NC2CCCCC2)cc1` [glibenclamide], the IC50 is 0.0195 ± 0.0061 µM.
